Measured values published in ChEMBL document CHEMBL3817815, “Impact of Binding Site Comparisons on Medicinal Chemistry and Rational Molecular Design” (J Med Chem, 2016).
≈ marks a conversion by molar mass, not a printed value.

Key:
[1] = target: T1, Replicase polyprotein 1ab (Severe acute respiratory syndrome-related coronavirus, UniProt P0C6X7); experiment: Inhibition of SARS coronavirus main proteinase 3C-like protease
[2] = target: T2, Prostaglandin G/H synthase 1 (Homo sapiens, UniProt P23219); experiment: Inhibition of human recombinant COX1 expressed in Sf9 cell microsomes assessed as reduction in conversion of arachidonic acid to PGE2 incubated for 5 mins by HTRF assay
T2 sequence (P23219 whole entry): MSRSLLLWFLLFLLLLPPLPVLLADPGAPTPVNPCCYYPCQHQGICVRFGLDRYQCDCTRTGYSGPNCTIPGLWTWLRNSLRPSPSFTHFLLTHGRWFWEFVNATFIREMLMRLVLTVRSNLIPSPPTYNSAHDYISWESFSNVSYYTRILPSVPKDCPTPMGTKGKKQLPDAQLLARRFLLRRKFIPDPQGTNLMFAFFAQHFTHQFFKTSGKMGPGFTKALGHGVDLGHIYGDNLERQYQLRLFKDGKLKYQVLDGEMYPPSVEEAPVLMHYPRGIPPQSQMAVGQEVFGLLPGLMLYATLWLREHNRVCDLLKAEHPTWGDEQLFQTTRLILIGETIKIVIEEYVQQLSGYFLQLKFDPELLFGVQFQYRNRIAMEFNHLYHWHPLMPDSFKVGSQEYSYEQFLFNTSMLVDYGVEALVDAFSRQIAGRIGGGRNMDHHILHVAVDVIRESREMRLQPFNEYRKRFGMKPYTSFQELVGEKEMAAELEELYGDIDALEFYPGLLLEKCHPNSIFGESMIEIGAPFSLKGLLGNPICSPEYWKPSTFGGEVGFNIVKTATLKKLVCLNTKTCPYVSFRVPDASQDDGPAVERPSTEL

[3] = system: Mycobacterium tuberculosis; experiment: Antimicrobial activity against Mycobacterium tuberculosis str. Erdman assessed as complete inhibition of growth incubated for 14 days by microplate assay; format: functional; conditions: Erdman = ATCC 35801, 336 h
[4] = system: Mycobacterium tuberculosis; experiment: Inhibition of Mycobacterium tuberculosis InhA at 80 uM using DD-CoA and NADH
[5] = target: T2, Prostaglandin G/H synthase 1; experiment: Inhibition of human recombinant COX1 expressed in Sf9 cell microsomes assessed as reduction in conversion of arachidonic acid to PGE2 at 250 uM incubated for 5 mins by HTRF assay
[6] = target: T1, Replicase polyprotein 1ab; experiment: Binding affinity to SARS coronavirus main proteinase 3C-like protease
[7] = target: Beta-secretase 1 (Homo sapiens, UniProt P56817); experiment: Inhibition of BACE1 (unknown origin)
Sequence of Beta-secretase 1 (P56817 whole entry): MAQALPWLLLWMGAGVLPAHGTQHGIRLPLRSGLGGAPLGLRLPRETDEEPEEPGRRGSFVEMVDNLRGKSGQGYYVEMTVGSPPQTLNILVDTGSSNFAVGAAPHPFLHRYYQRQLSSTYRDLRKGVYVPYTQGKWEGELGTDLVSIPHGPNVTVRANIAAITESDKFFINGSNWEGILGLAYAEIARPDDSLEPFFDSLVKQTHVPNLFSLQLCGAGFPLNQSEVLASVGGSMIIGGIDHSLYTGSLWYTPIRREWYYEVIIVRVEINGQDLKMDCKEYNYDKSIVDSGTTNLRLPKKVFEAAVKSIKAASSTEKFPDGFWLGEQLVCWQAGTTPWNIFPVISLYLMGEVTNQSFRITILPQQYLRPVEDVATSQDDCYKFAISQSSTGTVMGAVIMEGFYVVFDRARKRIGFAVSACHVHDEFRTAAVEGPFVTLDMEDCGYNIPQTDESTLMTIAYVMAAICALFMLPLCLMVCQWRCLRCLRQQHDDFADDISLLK

[8] = target: Acetylcholinesterase (Homo sapiens, UniProt P22303); experiment: Inhibition of AChE (unknown origin)
Sequence of Acetylcholinesterase (P22303 whole entry): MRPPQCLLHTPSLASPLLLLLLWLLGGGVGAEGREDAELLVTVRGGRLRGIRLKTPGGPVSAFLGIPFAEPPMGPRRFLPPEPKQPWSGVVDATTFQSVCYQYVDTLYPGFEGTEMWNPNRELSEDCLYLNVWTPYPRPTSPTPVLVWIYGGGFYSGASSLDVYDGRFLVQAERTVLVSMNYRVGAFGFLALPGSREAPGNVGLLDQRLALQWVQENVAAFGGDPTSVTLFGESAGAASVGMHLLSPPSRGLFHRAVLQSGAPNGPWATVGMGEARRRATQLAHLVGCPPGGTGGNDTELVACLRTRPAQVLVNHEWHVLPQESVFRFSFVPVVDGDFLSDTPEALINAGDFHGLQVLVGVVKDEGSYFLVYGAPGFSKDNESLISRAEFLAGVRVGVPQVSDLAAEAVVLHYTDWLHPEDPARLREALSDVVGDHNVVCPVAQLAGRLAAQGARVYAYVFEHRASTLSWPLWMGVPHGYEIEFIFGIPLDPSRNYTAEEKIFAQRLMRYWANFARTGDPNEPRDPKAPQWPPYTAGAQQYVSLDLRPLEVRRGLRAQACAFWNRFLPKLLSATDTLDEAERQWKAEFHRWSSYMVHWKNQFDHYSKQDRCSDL

Compound	IC50 [1]	Ki [6]	other results
CC(=O)N[C@@H](Cc1cnc[nH]1)C(=O)N[C@@H](CO)C(=O)N[C@H](C(=O)N[C@@H](CC(C)C)C(=O)N[C@H](C=O)CCC(N)=O)[C@@H](C)O	> 50 µM	–	–
O=C(O)c1ccccc1O [SALICYLIC ACID]	–	–	IC50 [2]: 500 µM
CC(=O)N[C@@H](CC(=O)O)C(=O)N[C@@H](CO)C(=O)N[C@H](C(=O)N[C@@H](CC(C)C)C(=O)N[C@H](C=O)CCC(N)=O)[C@@H](C)O	10 µM	–	–
CCN(CC)C(=O)/C(C#N)=C/c1cc(O)c(O)c([N+](=O)[O-])c1 [ENTACAPONE]	–	–	MIC99 [3]: 260 µM (≈ 79.4 µg/mL); inhibition [4]: 47%
Cc1ccc(C)c(OCCCC(C)(C)C(=O)O)c1	–	–	inhibition [5]: 18%
CC(=O)N[C@@H](CC(N)=O)C(=O)N[C@@H](CO)C(=O)N[C@@H](Cc1ccccc1)C(=O)N[C@@H](CO)C(=O)N[C@@H](CCC(N)=O)C(=O)O	–	72 µM	–
COc1cc2ncnc(Nc3ccc(F)c(Cl)c3)c2cc1OCCCN1CCOCC1 [GEFITINIB]	–	–	IC50 [7]: 20 µM
CC(=O)N[C@@H](CC(=O)O)C(=O)N[C@@H](CO)C(=O)N[C@@H](Cc1ccccc1)C(=O)N[C@@H](CC(=O)O)C(=O)N[C@@H](CCC(N)=O)C(=O)O	–	41 µM	–
CC(=O)N[C@@H](CCC(=O)O)C(=O)N[C@@H](CO)C(=O)N[C@H](C(=O)N[C@@H](CC(C)C)C(=O)N[C@H](C=O)CCC(N)=O)[C@@H](C)O	7.5 µM	8 µM	–
CC(=O)N[C@@H](CC(N)=O)C(=O)N[C@@H](CO)C(=O)N[C@H](C(=O)N[C@@H](CO)C(=O)N[C@H](C=O)CCC(N)=O)[C@@H](C)O	7.5 µM	40 µM	–
CC(C)(Oc1ccc(Cl)cc1)C(=O)O	–	–	inhibition [5]: 14%
Cc1ccc(Nc2nccc(N(C)c3ccc4c(C)n(C)nc4c3)n2)cc1S(N)(=O)=O [PAZOPANIB]	–	–	IC50 [8]: 0.93 µM
CC(=O)N[C@@H](CC(N)=O)C(=O)N[C@@H](CO)C(=O)N[C@H](C(=O)N[C@@H](CC(=O)O)C(=O)N[C@H](C=O)CCC(N)=O)[C@@H](C)O	20 µM	–	–
